Active and inactive are the calls of the source. The rule behind the calls is not given here.

The results in this text go back to ChEMBL document CHEMBL4118261, “Synthesis, iron binding and antimicrobial properties of hexadentate 3-hydroxypyridinones-terminated dendrimers” (2018).

Test [1] is described as follows: Binding affinity to Fe3+ at 1:2 compound to ferric ion molar ratio by HR-ESI MS analysis.
A short description of test [2]: Iron chelating activity assessed as pFe3+ by measuring fluorescence intensity of the iron-CP691 complex at 2 uM after 1 month incubation in absence of light using CP691 as fluorescent probe by fluorescence assay relative to CP691 alone.
A short description of test [3]: Metal chelating activity assessed as formation of [Fe3L+H+Na]2+-compound complex at 1:3 compound to ferric ion molar ratio by HR-ESI MS analysis.
The subject of test [4] is Escherichia coli. The test is described as follows: Antibacterial activity against Escherichia coli CGMCC 1.0907 assessed as growth inhibition at 100 ug/ml after 24 hrs. The class given is functional. The conditions noted are these: for inhibition of growth at 100 µg/mL: CGMCC 1.0907, 24 h, read-out: GI.
Test [5] has as its system Pseudomonas aeruginosa. The test is described as follows: Antibacterial activity against Pseudomonas aeruginosa CGMCC 1.2342 assessed as growth inhibition at 100 ug/ml after 24 hrs. The conditions noted are these: for inhibition of growth at 100 µg/mL: CGMCC 1.2342, 24 h, read-out: GI. Format: functional.
A short description of test [6]: Metal chelating activity assessed as formation of [Fe3L+H+2Na]3+-compound complex at 1:3 compound to ferric ion molar ratio by HR-ESI MS analysis.
For test [7], the system named is Staphylococcus aureus. Briefly: Antibacterial activity against Staphylococcus aureus CGMCC 1.0089 assessed as growth inhibition at 100 ug/ml after 24 hrs. Format: functional. Conditions: for inhibition of growth at 100 µg/mL: CGMCC 1.0089, 24 h, read-out: GI.
In test [8] the test system is Bacillus subtilis. Briefly: Antibacterial activity against Bacillus subtilis CGMCC 1.0108 assessed as growth inhibition at 100 ug/ml after 24 hrs. Format: functional. Conditions: for inhibition of growth at 100 µg/mL: CGMCC 1.0108, 24 h, read-out: GI.
A short description of test [9]: Binding affinity to Fe3+ at 1:1 compound to ferric ion molar ratio by HR-ESI MS analysis.
Test [10] in a line: Iron chelating activity assessed as pFe3+ by measuring fluorescence intensity of the iron-CP691 complex at 1 uM after 1 month incubation in absence of light using CP691 as fluorescent probe by fluorescence assay relative to CP691 alone.
A short description of test [11]: Binding affinity to Fe3+ at 1:6 compound to ferric ion molar ratio measured after 4 hrs at pH 8.2 to 8.4 measured at 460 nm by UV/Vis spectrophotometry.
The nature of test [12]: Binding affinity to Fe3+ at 1:6 compound to ferric ion molar ratio by HR-ESI MS analysis.
The nature of test [13]: Binding affinity to Fe3+ at 1:9 compound to ferric ion molar ratio measured after 4 hrs at pH 8.2 to 8.4 measured at 460 nm by UV/Vis spectrophotometry.
Test [14] is described as follows: Iron chelating activity assessed as pFe3+ by measuring fluorescence intensity of the iron-CP691 complex at 0.67 uM after 1 month incubation in absence of light using CP691 as fluorescent probe by fluorescence assay relative to CP691 alone.
Test [15] is described as follows: Binding affinity to Fe3+ at 1:9 compound to ferric ion molar ratio by HR-ESI MS analysis.
The nature of test [16]: Binding affinity to Fe3+ at 1:3 compound to ferric ion molar ratio measured after 4 hrs at pH 8.2 to 8.4 measured at 460 nm by UV/Vis spectrophotometry.

For `O=C(CCC(CCC(=O)NCc1c(O)c(=O)ccn1CCO)(CCC(=O)NCc1c(O)c(=O)ccn1CCO)NC(=O)CCNC(=O)CN(CC(=O)NCCC(=O)NC(CCC(=O)NCc1c(O)c(=O)ccn1CCO)(CCC(=O)NCc1c(O)c(=O)ccn1CCO)CCC(=O)NCc1c(O)c(=O)ccn1CCO)CC(=O)NCCC(=O)NC(CCC(=O)NCc1c(O)c(=O)ccn1CCO)(CCC(=O)NCc1c(O)c(=O)ccn1CCO)CCC(=O)NCc1c(O)c(=O)ccn1CCO)NCc1c(O)c(=O)ccn1CCO`, the result in [1] and in [9] was inactive. In [2], the log(activity) worked out at 30. Further, the outcome in test [3] and in test [6] was Active. In addition, the growth inhibition (GI) in test [4] was 99.7%; in test [5], 85.3%; in [7], 81.7%; in [8] it was 95%.

With `CCCCn1ccc(=O)c(CNC(=O)CCC(CCC(=O)NCc2c(O)c(=O)ccn2CCCC)(CCC(=O)NCc2c(O)c(=O)ccn2CCCC)NC(=O)CCNC(=O)CCC(CCC(=O)NCCC(=O)NC(CCC(=O)NCc2c(O)n(CCCC)ccc2=O)(CCC(=O)NCc2c(O)c(=O)ccn2CCCC)CCC(=O)NCc2c(O)c(=O)ccn2CCCC)(CCC(=O)NCCC(=O)NC(CCC(=O)NCc2c(O)n(CCCC)ccc2=O)(CCC(=O)NCc2c(O)c(=O)ccn2CCCC)CCC(=O)NCc2c(O)c(=O)ccn2CCCC)NC(=O)CCNC(=O)CCNC(=O)c2ccc(C(=O)NCCC(=O)NCCC(=O)NC(CCC(=O)NCCC(=O)NC(CCC(=O)NCc3c(O)n(CCCC)ccc3=O)(CCC(=O)NCc3c(O)c(=O)ccn3CCCC)CCC(=O)NCc3c(O)c(=O)ccn3CCCC)(CCC(=O)NCCC(=O)NC(CCC(=O)NCc3c(O)n(CCCC)ccc3=O)(CCC(=O)NCc3c(O)c(=O)ccn3CCCC)CCC(=O)NCc3c(O)c(=O)ccn3CCCC)CCC(=O)NCCC(=O)NC(CCC(=O)NCc3c(O)n(CCCC)ccc3=O)(CCC(=O)NCc3c(O)c(=O)ccn3CCCC)CCC(=O)NCc3c(O)c(=O)ccn3CCCC)cc2)c1O`, the log(activity) in [10] turned out to be 30.3. For the same compound, the inhibition of growth at 100 µg/mL in test [4] came out at 79.8%; in [5] it was 87.9%; in test [7], 86.9%; in test [8], 81.4%. Further, in test [11], the result was Active. Also, the result in [12] was inactive.

As to `CCCCn1ccc(=O)c(CNC(=O)CCC(CCC(=O)NCc2c(O)c(=O)ccn2CCCC)(CCC(=O)NCc2c(O)c(=O)ccn2CCCC)NC(=O)CCNC(=O)CCC(CCC(=O)NCCC(=O)NC(CCC(=O)NCc2c(O)n(CCCC)ccc2=O)(CCC(=O)NCc2c(O)c(=O)ccn2CCCC)CCC(=O)NCc2c(O)c(=O)ccn2CCCC)(CCC(=O)NCCC(=O)NC(CCC(=O)NCc2c(O)n(CCCC)ccc2=O)(CCC(=O)NCc2c(O)c(=O)ccn2CCCC)CCC(=O)NCc2c(O)c(=O)ccn2CCCC)NC(=O)CCNC(=O)CCNC(=O)c2cc(C(=O)NCCC(=O)NCCC(=O)NC(CCC(=O)NCCC(=O)NC(CCC(=O)NCc3c(O)n(CCCC)ccc3=O)(CCC(=O)NCc3c(O)c(=O)ccn3CCCC)CCC(=O)NCc3c(O)c(=O)ccn3CCCC)(CCC(=O)NCCC(=O)NC(CCC(=O)NCc3c(O)n(CCCC)ccc3=O)(CCC(=O)NCc3c(O)c(=O)ccn3CCCC)CCC(=O)NCc3c(O)c(=O)ccn3CCCC)CCC(=O)NCCC(=O)NC(CCC(=O)NCc3c(O)n(CCCC)ccc3=O)(CCC(=O)NCc3c(O)c(=O)ccn3CCCC)CCC(=O)NCc3c(O)c(=O)ccn3CCCC)cc(C(=O)NCCC(=O)NCCC(=O)NC(CCC(=O)NCCC(=O)NC(CCC(=O)NCc3c(O)n(CCCC)ccc3=O)(CCC(=O)NCc3c(O)c(=O)ccn3CCCC)CCC(=O)NCc3c(O)c(=O)ccn3CCCC)(CCC(=O)NCCC(=O)NC(CCC(=O)NCc3c(O)n(CCCC)ccc3=O)(CCC(=O)NCc3c(O)c(=O)ccn3CCCC)CCC(=O)NCc3c(O)c(=O)ccn3CCCC)CCC(=O)NCCC(=O)NC(CCC(=O)NCc3c(O)n(CCCC)ccc3=O)(CCC(=O)NCc3c(O)c(=O)ccn3CCCC)CCC(=O)NCc3c(O)c(=O)ccn3CCCC)c2)c1O`, in [13], the result was Active. Also, the log(activity) in [14] turned out to be 29.8. Also, the growth inhibition (GI) in test [4] stood at 81.2%; in [5] it was 69.9%; in test [7], 64.5%; in test [8] it was 64.1%. For the same compound, in [15], the result was inactive.

For `Cc1c(O)c(=O)ccn1C` [DEFERIPRONE], the inhibition of growth at 100 µg/mL in test [4] is 89.1%; in test [5] it was 79.5%; in test [7], 74.8%; in test [8], 77.4%.

With `CCCCn1ccc(=O)c(O)c1CNC(=O)CCC(CCC(=O)NCc1c(O)c(=O)ccn1CCCC)(CCC(=O)NCc1c(O)c(=O)ccn1CCCC)NC(=O)CCNC(=O)CN(CC(=O)NCCC(=O)NC(CCC(=O)NCc1c(O)c(=O)ccn1CCCC)(CCC(=O)NCc1c(O)c(=O)ccn1CCCC)CCC(=O)NCc1c(O)c(=O)ccn1CCCC)CC(=O)NCCC(=O)NC(CCC(=O)NCc1c(O)c(=O)ccn1CCCC)(CCC(=O)NCc1c(O)c(=O)ccn1CCCC)CCC(=O)NCc1c(O)c(=O)ccn1CCCC`, the outcome in test [1] and in test [9] was inactive. The log(activity) in [2] was found to be 30.3. For the same compound, the result in [3], in test [16] and in [6] was Active. The inhibition of growth at 100 µg/mL in test [4] was found to be 71.7%; in [5], 90.4%; in test [7], 90%; in test [8] it was 84.8%.
